The text below walks through data of ChEMBL document CHEMBL1649206, “Emerging Klebsiella pneumoniae isolates coproducing KPC-2 and VIM-1 carbapenemases” (2009).

In brackets after ≈: the same amount, converted by molar mass.

For assay [1], the system named is Klebsiella pneumoniae. Description: Antimicrobial activity against Klebsiella pneumoniae isolate A-1797 expressing VIM-1 and KPC-2 genes by microdilution method. In kind it is functional.
Assay [2] deals with Klebsiella pneumoniae. The experiment in a line: Antimicrobial activity against Klebsiella pneumoniae isolate T-1780 expressing VIM-1 and KPC-2 genes by microdilution method. In kind it is functional. In general terms: Dilution methods test growth across graded concentrations, often in twofold steps.
Assay [3] concerns Klebsiella pneumoniae. The experiment in a line: Antimicrobial activity against Klebsiella pneumoniae isolate H-1406 expressing VIM-1 and KPC-2 genes by microdilution method. In kind it is functional.
Assay [4] relates to Klebsiella pneumoniae. Description: Antimicrobial activity against Klebsiella pneumoniae isolate T-1504 expressing VIM-1 and KPC-2 genes by microdilution method. Format: functional.
Assay [5] concerns Klebsiella pneumoniae. The experiment in a line: Antimicrobial activity against Klebsiella pneumoniae isolate A-1760 expressing VIM-1 and KPC-2 genes by microdilution method. In kind it is functional.
Assay [6] has as its target Metallo-beta-lactamase (Klebsiella pneumoniae) (UniProt Q5GN09). The experiment in a line: Activity of VIM-1 in Klebsiella pneumoniae isolate A-1797.
For assay [7] the target is unchanged. Description: Activity of VIM-1 in Klebsiella pneumoniae isolate A-1760 assessed as compound hydrolysis in presence of EDTA. Set-up: scale not given: the % may be the effect or the level left.
The target in assay [8] is Carbapenem-hydrolyzing beta-lactamase KPC (Klebsiella pneumoniae) (UniProt Q9F663). The experiment in a line: Activity of KPC-2 in Klebsiella pneumoniae isolate T-1780 assessed as compound hydrolysis in presence of EDTA. Set-up: scale not given: the % may be the effect or the level left.
Chain of Carbapenem-hydrolyzing beta-lactamase KPC (Klebsiella pneumoniae) (Q9F663 whole entry): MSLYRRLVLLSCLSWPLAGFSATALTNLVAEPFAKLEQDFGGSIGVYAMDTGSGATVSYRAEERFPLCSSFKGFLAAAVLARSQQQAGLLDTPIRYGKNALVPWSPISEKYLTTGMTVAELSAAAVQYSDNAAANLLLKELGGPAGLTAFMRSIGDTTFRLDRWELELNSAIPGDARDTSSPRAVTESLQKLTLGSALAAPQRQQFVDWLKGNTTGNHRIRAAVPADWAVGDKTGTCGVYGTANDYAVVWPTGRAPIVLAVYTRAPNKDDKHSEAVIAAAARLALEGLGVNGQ
Assay [9] deals with Metallo-beta-lactamase (Klebsiella pneumoniae) (UniProt Q5GN09). The experiment in a line: Activity of VIM-1 in Klebsiella pneumoniae isolate H-1406.
The target is the same in assay [10]. Description: Activity of VIM-1 in Klebsiella pneumoniae isolate A-1760.
The target in assay [11] is Carbapenem-hydrolyzing beta-lactamase KPC (Klebsiella pneumoniae) (UniProt Q9F663). Description: Activity of KPC-2 in Klebsiella pneumoniae isolate T-1504 assessed as compound hydrolysis in presence of EDTA. Also on record: scale not given: the % may be the effect or the level left.
Assay [12] shares this target. Description: Activity of KPC-2 in Klebsiella pneumoniae isolate T-1504.
Assay [13] has as its target Metallo-beta-lactamase (Klebsiella pneumoniae) (UniProt Q5GN09). Description: Activity of VIM-1 in Klebsiella pneumoniae isolate T-1780.
Assay [14] concerns the target Carbapenem-hydrolyzing beta-lactamase KPC (Klebsiella pneumoniae) (UniProt Q9F663). The experiment in a line: Activity of KPC-2 in Klebsiella pneumoniae isolate H-1406.
Assay [15] addresses Metallo-beta-lactamase (Klebsiella pneumoniae) (UniProt Q5GN09). The experiment in a line: Activity of VIM-1 in Klebsiella pneumoniae isolate T-1780 assessed as compound hydrolysis in presence of EDTA. Set-up: scale not given: the % may be the effect or the level left.
Assay [16] concerns the target Carbapenem-hydrolyzing beta-lactamase KPC (Klebsiella pneumoniae) (UniProt Q9F663). Description: Activity of KPC-2 in Klebsiella pneumoniae isolate T-1780.
For assay [17], the target named is Metallo-beta-lactamase (Klebsiella pneumoniae) (UniProt Q5GN09). Description: Activity of VIM-1 in Klebsiella pneumoniae isolate A-1797 assessed as compound hydrolysis in presence of EDTA. Set-up: scale not given: the % may be the effect or the level left.
In assay [18] the target is Carbapenem-hydrolyzing beta-lactamase KPC (Klebsiella pneumoniae) (UniProt Q9F663). Description: Activity of KPC-2 in Klebsiella pneumoniae isolate H-1406 assessed as compound hydrolysis in presence of EDTA. Also on record: scale not given: the % may be the effect or the level left.
The target of assay [19] is Metallo-beta-lactamase (Klebsiella pneumoniae) (UniProt Q5GN09). Description: Activity of VIM-1 in Klebsiella pneumoniae isolate H-1406 assessed as compound hydrolysis in presence of EDTA. Also on record: scale not given: the % may be the effect or the level left.
The test system of assay [20] is Klebsiella pneumoniae. Description: Antimicrobial activity against Klebsiella pneumoniae isolate A-1760 expressing VIM-1 and KPC-2 genes by microdilution method in presence of beta-lactamase inhibitor Tazobactam. Format: functional.
Assay [21] deals with Klebsiella pneumoniae. Description: Antimicrobial activity against Klebsiella pneumoniae isolate A-1797 expressing VIM-1 and KPC-2 genes by microdilution method in presence of beta-lactamase inhibitor Tazobactam. In kind it is functional.
The test system of assay [22] is Klebsiella pneumoniae. The experiment in a line: Antimicrobial activity against Klebsiella pneumoniae isolate T-1504 expressing VIM-1 and KPC-2 genes by microdilution method in presence of beta-lactamase inhibitor Tazobactam. Format: functional.
Assay [23] relates to Klebsiella pneumoniae. Description: Antimicrobial activity against Klebsiella pneumoniae isolate T-1780 expressing VIM-1 and KPC-2 genes by microdilution method in presence of beta-lactamase inhibitor Tazobactam. Format: functional.
For assay [24], the system named is Klebsiella pneumoniae. Description: Antimicrobial activity against Klebsiella pneumoniae isolate H-1406 expressing VIM-1 and KPC-2 genes by microdilution method in presence of beta-lactamase inhibitor Tazobactam. Format: functional.
For assay [25], the system named is Klebsiella pneumoniae. Description: Antimicrobial activity against Klebsiella pneumoniae isolate H-1406 expressing VIM-1 and KPC-2 genes by microdilution method in presence of beta-lactamase inhibitor clavulanic acid. In kind it is functional.
Assay [26] relates to Klebsiella pneumoniae. The experiment in a line: Antimicrobial activity against Klebsiella pneumoniae isolate T-1504 expressing VIM-1 and KPC-2 genes by microdilution method in presence of beta-lactamase inhibitor clavulanic acid. In kind it is functional.
For assay [27], the system named is Klebsiella pneumoniae. Description: Antimicrobial activity against Klebsiella pneumoniae isolate A-1797 expressing VIM-1 and KPC-2 genes by microdilution method in presence of beta-lactamase inhibitor clavulanic acid. In kind it is functional.
Assay [28] deals with Klebsiella pneumoniae. The experiment in a line: Antimicrobial activity against Klebsiella pneumoniae isolate A-1760 expressing VIM-1 and KPC-2 genes by microdilution method in presence of beta-lactamase inhibitor clavulanic acid. In kind it is functional.
In assay [29] the test system is Klebsiella pneumoniae. Description: Antimicrobial activity against Klebsiella pneumoniae isolate T-1780 expressing VIM-1 and KPC-2 genes by microdilution method in presence of beta-lactamase inhibitor clavulanic acid. In kind it is functional.

For the molecule `C[C@@H](O)[C@H]1C(=O)N2C(C(=O)O)=C(S[C@@H]3CN[C@H](C(=O)Nc4cccc(C(=O)O)c4)C3)[C@H](C)[C@H]12`, the MIC was 8 µg/mL (≈ 16.8 µM) in [1]; greater than 128 µg/mL in assay [2]; 64 µg/mL (≈ 135 µM) in assay [3]; 32 µg/mL (≈ 67.3 µM) in assay [4]; 64 µg/mL (≈ 135 µM) in [5].

As for `CO/N=C(\C(=O)N[C@@H]1C(=O)N2C(C(=O)[O-])=C(C[N+]3(C)CCCC3)CS[C@H]12)c1csc(N)n1`, the MIC is 16 µg/mL (≈ 33.3 µM) in assay [1]; greater than 256 µg/mL in assay [2]; 128 µg/mL (≈ 266 µM) in assay [3]; 16 µg/mL (≈ 33.3 µM) in assay [4]; 256 µg/mL (≈ 533 µM) in [5].

In the case of `C[C@H]1[C@H](NC(=O)/C(=N\OC(C)(C)C(=O)O)c2csc(N)n2)C(=O)N1S(=O)(=O)O` [AZTREONAM], the MIC in assay [1] came to 64 µg/mL (≈ 147 µM); in assay [2], 64 µg/mL (≈ 147 µM); in assay [3], 64 µg/mL (≈ 147 µM); in assay [4], 32 µg/mL (≈ 73.5 µM); in assay [5], 0.12 µg/mL (≈ 0.276 µM).

Consider `CO/N=C(\C(=O)N[C@@H]1C(=O)N2C(C(=O)O)=C(COC(C)=O)CS[C@H]12)c1csc(N)n1` [CEFOTAXIME], for which the MIC in [1] was greater than 256 µg/mL; in assay [2], greater than 256 µg/mL; in assay [3] it was 256 µg/mL (≈ 562 µM); in assay [4] it was 8 µg/mL (≈ 17.6 µM); in [5] it was greater than 256 µg/mL.

`CC(C)(O/N=C(\C(=O)N[C@@H]1C(=O)N2C(C(=O)[O-])=C(C[n+]3ccccc3)CS[C@H]12)c1csc(N)n1)C(=O)O` [CEFTAZIDIME]: the MIC in assay [1] is greater than 256 µg/mL; in assay [2], greater than 256 µg/mL; in assay [3], greater than 256 µg/mL; in assay [4] it was 16 µg/mL (≈ 29.3 µM); in [5] it was greater than 256 µg/mL.

In the case of `C[C@@H](O)[C@H]1C(=O)N2C(C(=O)O)=C(SCCNC=N)C[C@H]12` [IMIPENEM ANHYDROUS], the MIC in [1] was found to be 2 µg/mL (≈ 6.68 µM); in [2], 32 µg/mL (≈ 107 µM); in assay [3] it was 32 µg/mL (≈ 107 µM); in assay [4], 2 µg/mL (≈ 6.68 µM); in assay [5], 32 µg/mL (≈ 107 µM).

In the case of `C[C@@H](O)[C@H]1C(=O)N2C(C(=O)O)=C(S[C@@H]3CN[C@H](C(=O)N(C)C)C3)[C@H](C)[C@H]12` [MEROPENEM], the Activity was 42 U in assay [6]; 100% in [7]; 64% in assay [8]; 55 U in [9]; 80 U in [10]; less than 2% in assay [11]. For the same molecule, the Activity is 31 U in assay [12]; 76 U in assay [13]; 55 U in assay [14]; 64% in assay [15]; 76 U in assay [16]; 80% in assay [17]. In addition, the Activity in assay [18] and in assay [19] was 57% throughout. For the same molecule, the MIC in [1] worked out at 2 µg/mL (≈ 5.22 µM); in assay [2] it was 64 µg/mL (≈ 167 µM); in assay [3], 8 µg/mL (≈ 20.9 µM); in [5], 64 µg/mL (≈ 167 µM).

For `CCN1CCN(C(=O)N[C@@H](C(=O)N[C@@H]2C(=O)N3[C@@H]2SC(C)(C)[C@@H]3C(=O)O)c2ccccc2)C(=O)C1=O` [PIPERACILLIN], the MIC in assay [2] is greater than 256 µg/mL; in assay [20], greater than 256 µg/mL; in assay [21], greater than 256 µg/mL; in assay [4], 128 µg/mL (≈ 247 µM); in assay [22] it was 64 µg/mL; in [23], greater than 256 µg/mL. In addition, the MIC in [24] is greater than 256 µg/mL.

For the molecule `CC1(C)S[C@@H]2[C@H](NC(=O)[C@H](C(=O)O)c3ccsc3)C(=O)N2[C@H]1C(=O)O` [TICARCILLIN], the MIC in [25] is 256 µg/mL; in [26] it was 8 µg/mL; in [2], greater than 256 µg/mL; in assay [27], greater than 256 µg/mL; in [3], greater than 256 µg/mL; in [28] it was greater than 256 µg/mL. Further, the MIC in assay [4] was 256 µg/mL (≈ 666 µM); in [29] it was greater than 256 µg/mL.

The MIC is the lowest concentration that inhibits growth of the organism.
